{"source": "patent EP1708721B1", "about": "“MYOCARDIAL PERFUSION IMAGING USING ADENOSINE RECEPTOR AGONISTS” (Gilead Sciences, Inc., priority 2004, dated 2005)", "key": {"[1]": {"tested_on": "awake dogs", "assay": "increase of coronary blood flow velocity (CBFv) in awake dogs, potency versus adenosine (background statement)", "format": "in vivo", "conditions": "relative to adenosine"}, "[2]": {"tested_on": "human subjects", "assay": "Example 2: dose range study, coronary flow velocity, heart rate and blood pressure after IV bolus", "format": "in vivo", "description": "The study included patients undergoing a clinically indicated coronary catheterization with no more than a 70% stenosis in any coronary artery and no more than a 50% stenosis of the study vessel had CBFv determined by Doppler flow wire. Study subject were selected after measuring baseline and peak CBFv after an intracoronary (IC) injection of 18 µg of Ado. 36 subjects were identified as meeting the study criteria of having a peak to baseline CBFv ration of ≥ 2.5 in response to Adenosine,\nCVT-3146 was administered to the study subjects by IV bolus in less that 10 seconds in amounts ranging from 10 µg to 500 µg.\nThe effectiveness of both compounds was measured by monitoring coronary flow velocity. Other coronary parameters that were monitored included heart rate and blood pressure. These parameters were measured in order to evaluate the time to peak dose response, the magnitude of the dose response and the duration of the dose response. Adverse events were also monitored. Coronary blood flow velocity was measured at the left anterior descending coronary artery (LAD) or left circumflex coronary artery (LCx). The velocity measurements were taken by following standard heart catheterization techniques and inserting a 0.014 inch Doppler-tipped Flowire into the LAD or LCx vessel and thereafter monitoring blood flow velocity. In addition, hemodynamic and electrocardiographic measurements were recorded continuously.\nOverall, 36 human subjects (n=36) were evaluated. Of the 36, 18 were female and 18 were male. Their mean age was 53.4 and they ranged from 24-72 years in age. Of the 36 subjects evaluated, the LAD vessel of 31 subjects was monitored, and the LCx vessel of 5 subjects was monitored. The following doses (µg) of CVT-3146 were given to the subjects in a single iv bolus: 10 (n=4); 30 (n=6); 100 (n=4); 300 (n=7); 400 (n=9); 500 (n=6)."}, "[3]": {"tested_on": "awake rats", "assay": "Example 5: sympathoexcitation, heart rate, blood pressure and plasma catecholamines after i.v. bolus", "format": "in vivo", "description": "The present study was carried out to determine whether CVT-3146, a selective A2A adenosine receptor agonist, causes sympathoexcitation. CVT-3146 (0.31µg/kg-50 µg/kg) was given as a rapid i.v. bolus to awake rats and heart rate (HR) and blood pressure (BP) were monitored. CVT-3146 caused an increase in BP and systolic pressure (SP) at lower doses while at higher doses there was a decrease in BP and SP. […] The increase in HR was evident at the lowest dose of CVT-3146 at which there was no appreciable decrease in BP. ZM241385 (30 µg/kg , N=5), an A2A receptor antagonist, attenuated the decrease in BP (CVT-3146: 14±3%, ZM: 1±1 %) and the increase in HR (CVT: 27±3%, ZM: 18±3%) caused by CVT-3146. Pretreatment with metoprolol (MET, 1 mg/kg, n=5), a beta-blocker, attenuated the increase in HR (CVT: 27±3%, MET: 15±2%), but had no effect on hypotension caused by CVT-3146. In the presence of hexamethonium (HEX, 10 mg/kg, n=5), a ganglionic blocker, the tachycardia was prevented (CVT: 27±3%, HEX: -1±2%), but BP was further reduced (CVT: -11±2%, HEX: -49±5%)."}, "[4]": {"tested_on": "subjects (27 men, 9 women)", "assay": "Example 7: pharmacologic stress myocardial perfusion imaging protocol, adverse effects and hemodynamics", "format": "in vivo, human", "source_text": "36 subjects (27 men, 9 women; 67±10 years) were studied with two doses of CVT-3146 [400 mcg (n=18), 500 mcg (n=18)], administered as an IV bolus, as part of a pharmacologic stress myocardial perfusion imaging protocol."}, "[5]": {"tested_on": "awake dogs", "assay": "Example 8: vasodilator effects in different vascular beds of chronically instrumented dogs", "format": "in vivo", "source_text": "In this study the vasodilator effects of CVT-3146 were compared to those of ADO in different vascular beds in awake dogs. Dogs were chronically instrumented for measurements of the blood flow in coronary (CBF), mesenteric (MBF), hind limb (LBF), and renal (RBF) vascular beds, and hemodynamics."}, "[6]": {"conditions": "peak hemodynamic changes, mean±S.D., 400 and 500 mcg"}}}
{"smiles": "CNC(=O)c1cnn(-c2nc(N)c3ncn([C@@H]4O[C@H](CO)[C@@H](O)[C@H]4O)c3n2)c1", "note": "[CVT-3146, (1-{9-[(4S,2R,3R,5R)-3,4-dihydroxy-5-(hydroxymethyl)oxolan-2-yl]-6-aminopurin-2-yl}pyrazol-4-yl)-N-methylcarboxamide]", "values": [{"measurement": "more potent than adenosine (Ado) in increasing coronary blood flow velocity (CBFv)", "setting": "[1]", "result": "> 100", "unit": "fold"}, {"measurement": "Maximum decrease in diastolic BP", "setting": "[2]; 400 µg IV bolus", "result": "10 ± 5", "unit": "mmHg"}, {"measurement": "Maximum decrease in systolic BP", "setting": "[2]; 400 µg IV bolus", "result": "20 ± 8", "unit": "mmHg"}, {"measurement": "Maximum increase in heart rate", "setting": "[2]; 400 µg IV bolus", "result": "18 ± 8", "unit": "bpm"}, {"measurement": "time coronary blood flow velocity ≥ 2.5-fold above baseline was maintained", "setting": "[2]; 400 µg IV bolus", "result": 2.8, "unit": "min"}, {"measurement": "time of maximum decrease in diastolic BP after dosing", "setting": "[2]; 400 µg IV bolus", "result": "about 1 minute"}, {"measurement": "time of maximum increase in heart rate after dosing", "setting": "[2]; 400 µg IV bolus", "result": "about 1 minute"}, {"measurement": "amount at which plateau peak velocity is reached", "setting": "[2]; IV bolus", "result": "less than 100 µg"}, {"measurement": "amount that increases peak flow velocity (as low as)", "setting": "[2]; IV bolus", "result": 10, "unit": "µg"}, {"measurement": "time at which peak flow was reached", "setting": "[2]; all doses (10 to 500 µg IV bolus)", "result": "about 30 seconds"}, {"measurement": "peak effects", "setting": "[2]; doses above about 100 µg", "result": "equivalent to 18 µg adenosine administered IC"}, {"measurement": "increase in HR", "setting": "[3]; CVT-3146 alone", "result": "27±3", "unit": "%"}, {"measurement": "decrease in BP", "setting": "[3]; CVT-3146 alone (comparison with ZM241385)", "result": "14±3", "unit": "%"}, {"measurement": "BP (change)", "setting": "[3]; CVT-3146 alone (comparison with hexamethonium)", "result": "-11±2", "unit": "%"}, {"measurement": "ST abnormalities developed", "setting": "[4]; 36 subjects", "result": 7, "unit": "pts"}, {"measurement": "T wave abnormalities developed", "setting": "[4]; 36 subjects", "result": 5, "unit": "pts"}, {"measurement": "Flushing", "setting": "[4]; 400-mcg group", "result": 17, "unit": "%"}, {"measurement": "dizziness", "setting": "[4]; 400-mcg group", "result": 11, "unit": "%"}, {"measurement": "dyspnea", "setting": "[4]; 400-mcg group", "result": 17, "unit": "%"}, {"measurement": "mean change in HR response", "setting": "[4]; 400 mcg dose", "result": 34.8, "unit": "%"}, {"measurement": "Flushing", "setting": "[4]; 500-mcg group", "result": 44, "unit": "%"}, {"measurement": "dizziness", "setting": "[4]; 500-mcg group", "result": 28, "unit": "%"}, {"measurement": "dyspnea", "setting": "[4]; 500-mcg group", "result": 44, "unit": "%"}, {"measurement": "mean change in HR response", "setting": "[4]; 500 mcg dose", "result": 44.2, "unit": "%"}, {"measurement": "BP changes deviated from baseline", "setting": "[4]; Thirty min after CVT-3146", "result": "< 2", "unit": "%"}, {"measurement": "HR remained above baseline by", "setting": "[4]; Thirty min after CVT-3146", "result": 8.6, "unit": "%"}, {"measurement": "abdominal pain", "setting": "[4]; both doses, 36 subjects", "result": 11, "unit": "%"}, {"measurement": "chest discomfort", "setting": "[4]; both doses, 36 subjects", "result": 33, "unit": "%"}, {"measurement": "headache", "setting": "[4]; both doses, 36 subjects", "result": 25, "unit": "%"}, {"measurement": "systolic BP did not fall below", "setting": "[4]; either dose", "result": "≥ 90", "unit": "mmHg"}, {"measurement": "serious AE occurred", "setting": "[4]; exacerbation of a migraine headache, required hospitalization", "result": "One"}, {"measurement": "2nd or 3rd degree AV block", "setting": "[4]; in vivo", "result": "No 2nd or 3rd degree AV block was noted"}, {"measurement": "serious arrhythmias", "setting": "[4]; in vivo", "result": "no serious arrhythmias"}, {"measurement": "time of peak hemodynamic effect, diastolic BP", "setting": "[4]; in vivo", "result": 8, "unit": "min"}, {"measurement": "time of peak hemodynamic effect, heart rate (HR)", "setting": "[4]; in vivo", "result": "≤ 0.033", "unit": "h"}, {"measurement": "time of peak hemodynamic effect, systolic blood pressure (BP)", "setting": "[4]; in vivo", "result": 4, "unit": "min"}, {"measurement": "Diastolic BP, Absolute Change", "setting": "[4]; [6]", "result": "-5.4±7.2", "unit": "mmHg"}, {"measurement": "Diastolic BP, Relative Change", "setting": "[4]; [6]", "result": "-7.9%±10.5%"}, {"measurement": "Heart Rate, Absolute Change", "setting": "[4]; [6]", "result": "+21.9±10.4 beats per min"}, {"measurement": "Heart Rate, Relative Change", "setting": "[4]; [6]", "result": "+36.7%+21.0%"}, {"measurement": "Systolic BP, Absolute Change", "setting": "[4]; [6]", "result": "-5.9±10.7", "unit": "mmHg"}, {"measurement": "Systolic BP, Relative Change", "setting": "[4]; [6]", "result": "4.1%±7.6%"}, {"measurement": "AEs mild to moderate", "setting": "[4]; share of AEs", "result": 96, "unit": "%"}, {"measurement": "AEs resolved within 15 min without treatment", "setting": "[4]; share of AEs", "result": 91, "unit": "%"}, {"measurement": "duration for CBF above 2-fold of the baseline", "setting": "[5]; 2.5 µg/kg", "result": "130 ± 19", "unit": "s"}, {"measurement": "increase in LBF (hind limb blood flow)", "setting": "[5]; Figure 18, mean ± SE, n=6, compared with ADO", "result": "smaller increase in LBF than ADO"}]}
